Test results from PubChem BioAssay (NCI).
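Protocol summary: plate cells (96-well), add compound at 5 concentrations, incubate 48 h, interpolate endpoints linearly. TGI denotes the concentration required for complete inhibition of growth.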

How the values were obtained:
Experiment in all cases: NCI anticancer screen, dose series, 48 h
[1] = system: A549 NSCLC
[2] = system: ACHN renal
[3] = system: BT-549 breast
[4] = system: CAKI-1 renal
[5] = system: DU-145 prostate
[6] = system: HS 578T breast
[7] = system: MDA-MB-435
[8] = system: NCI-H522 lung
[9] = system: OVCAR-4 ovarian
[10] = system: PC-3 prostate
[11] = system: SK-OV-3 ovarian
[12] = system: SR leukemia
[13] = system: T-47D breast
[14] = system: HCT-116 colon
[15] = system: SF-539 CNS
[16] = system: DMS 114 small cell lung
[17] = system: DMS 273 small cell lung
[18] = system: HOP-18 NSCLC
[19] = system: SNB-78 CNS
[20] = system: XF 498 CNS

SMILES | TGI [1] [µM] | TGI [2] [µM] | TGI [3] [µM] | TGI [4] [µM] | TGI [5] [µM] | TGI [6] [µM] | TGI [7] [µM] | TGI [8] [µM] | TGI [9] [µM] | TGI [10] [µM] | TGI [11] [µM] | TGI [12] [µM] | TGI [13] [µM] | TGI [14] [µM] | TGI [15] [µM] | TGI [16] [µM] | TGI [17] [µM] | TGI [18] [µM] | TGI [19] [µM] | TGI [20] [µM]
Cc1cc(C)nc(NS(=O)(=O)c2ccc(Nc3c4ccccc4nc4c(C(=O)NCCCN(CCO)CCO)cccc34)cc2)n1 | > 100 | > 100 | 27.6 | > 100 | > 100 | 65.5 | 40.6 | 28.2 | > 100 | > 100 | > 100 | > 100 | > 100 | – | – | – | – | – | – | –
CN1C2CC(=O)CC1[C@H](O)[C@@H]2O | – | – | > 100 | – | > 100 | – | > 100 | – | – | > 100 | – | > 100 | > 100 | > 100 | – | – | – | – | – | –
Cc1[nH]c(=O)nc(N/N=C/c2ccc(Cl)cc2)c1C(=O)NC(C)(CO)CO | – | > 100 | > 100 | > 100 | > 100 | > 100 | > 100 | – | > 100 | > 100 | > 100 | > 100 | > 100 | > 100 | – | – | – | – | – | –
CCOC(=O)c1csc(NC(=O)CCN2CCCCC2)n1 | > 100 | > 100 | – | > 100 | > 100 | – | > 100 | – | > 100 | > 100 | > 100 | > 100 | > 100 | – | > 100 | – | – | – | – | –
COc1cc(C2C(Cl)C(=O)N2NC(=O)c2ccccc2O)ccc1O (stereo not given) | > 100 | > 100 | – | – | – | – | – | > 100 | – | – | > 100 | – | – | > 100 | > 100 | > 100 | > 100 | > 100 | > 100 | > 100
CC1(C23CC4CC(CC(C4)C2)C3)n2c(=O)n(-c3ccccc3)c(=O)n2C1(C)C12CC3CC(CC(C3)C1)C2 (stereo not given) | > 100 | > 100 | > 100 | > 100 | > 100 | > 100 | > 100 | – | – | > 100 | > 100 | > 100 | > 100 | – | > 100 | – | – | – | – | –
CCC1=CC2CN3CCc4c([nH]c5ccccc45)C(C(=O)OC)(C2)C13 (stereo not given) | 82.5 | – | – | 46.5 | – | – | – | 102 | 75.3 | – | 134 | – | – | 71 | 92.8 | 85.1 | 91 | > 30 | 167 | 76.3
CCCCC(C)C1CCC2(C)C=CC(=O)C(C)=C2C1O (stereo not given) | > 100 | – | – | > 100 | – | – | – | > 100 | > 100 | – | > 100 | – | – | > 100 | > 100 | > 100 | > 100 | > 100 | > 100 | > 100
